This note sets out measurements from patent US20160159808A1, “HETEROCYCLIC COMPOUND” (TAKEDA PHARMACEUTICAL COMPANY LIMITED, priority 2013, published 2016).

The structures appear in SMILES notation.

In assay [1] the target is T1, human PDE2A3 enzyme (Homo sapiens, UniProt O00408).
T1 construct: Human PDE2A3 full-length gene was transduced into Sf9; His-tag; made in house; host or cells: Sf9 insect cells
Nature of the assay: PDE Enzyme Inhibitory Assay (SPA, [3H]cGMP substrate). The format is biochemical. Conditions: compound 1 μM; [3H]cGMP 77 nM; 60 min at room temperature; read-out: inhibitory rate (%) (1 μM). As to the method:
PDE Enzyme Inhibitory Assay Human PDE2A3 full-length gene was transduced into Sf9, and human PDE2A3 enzyme was purified by His-tag affinity column and gel filtration. The enzyme was stored at −70° C. until use. PDE activity was measured using a SPA (Scintillation Proximity Assay) (GE Healthcare). To evaluate the inhibitory activity of the compound, 10 μl of serial diluted compounds were reacted with 20 μl of PDE enzyme in assay buffer (50 mM HEPES-NaOH, 8.3 mM MgCl2, 1.7 mM EGTA, 0.1% BSA (pH 7.4)) for 30 min. at room temperature. Final concentration of DMSO in the reaction solution was 1 percent. Compounds were tested in duplicate in 96-well half-area plates (Corning) or 384-well OptiPlate (PerkinElmer). To start the reaction, 10 μl of substrate [^3H] cGMP (final concentration 77 nM, PerkinElmer) was added to a total volume of 40 μl. After reaction for 60 min at room temperature, 20 μl of 20 mg/mL yttrium SPA beads containing zinc sulfate was added to terminate the PDE reaction. After being settled for further 1 hour, the assay plates were counted in a scintillation counter (PerkinElmer) to allow calculation of inhibition rate. Inhibition rate was calculated on the basis of 0% control wells with enzyme and DMSO, and 100% control wells without enzyme.

The test system of assay [2] is Male C57BL/6 mice. Nature of the assay: Contextual fear conditioning test, MK-801-induced deficits. The format is in vivo. Conditions: 30 mg/kg p.o. 60 min before test, MK-801 (maleate) 0.08 mg/kg s.c. 30 min before test, n=10, FIG. 1. As to the method: Improvement effect on MK-801 ((5S,10R)-5-methyl-10,11-dihydro-5H-5,10-epiminodibenzo[a,d][7]annulene)-induced disorder in contextual fear conditioning test.
Male C57BL/6 mice were purchased from CLEA Japan, Inc. They were used for an experiment after a habituation period of at least one week after carrying them in the animal experimental facility. They were bred in the animal experimental facility with environment in which 12-hours light-dark cycle was performed, humidity and temperature were controlled, and free water drinking and feeding were allowed. Handling of experimental animals and experimental procedure of this study were approved by the Experimental Animal Ethics Committee of Takeda Pharmaceutical Company Limited.
A test compound was suspended in 0.5% methylcellulose solution at a dose of 30 mg/kg, and orally administered. MK-801 (maleate) (Sigma-Aldrich, St Louis, Mo.) was dissolved in saline at a dose of 0.08 mg/kg, and subcutaneously administered. All drugs were administered to mice at a dose of 10 mL/kg.
Contextual fear conditioning test is widely used as memory and learning test system depending on the hippocampus and amygdala. The improvement effect of test compounds on MK-801-induced deficits was investigated by contextual fear conditioning test. The test compounds and MK-801 (maleate) were administered 60 min and 30 min, respectively, before the test. 0.5% methylcellulose and saline were administered to the control groups 60 min and 30 min, respectively, before the test. 0.5% methylcellulose and MK-801 (maleate) were administered to the vehicle groups 60 min and 30 min, respectively, before the test. […] In the test session on day 2 of the experiment, mice were placed in the same chamber for 7 minutes, and freezing was measured during that period. The freezing was calculated as a percentage of freezing rates during measuring period with use of an automatic analysis software manufactured by the O'Hara & Co., Ltd. All data were shown as the mean+standard error (n=10). […]

T1 sequence (O00408 whole entry): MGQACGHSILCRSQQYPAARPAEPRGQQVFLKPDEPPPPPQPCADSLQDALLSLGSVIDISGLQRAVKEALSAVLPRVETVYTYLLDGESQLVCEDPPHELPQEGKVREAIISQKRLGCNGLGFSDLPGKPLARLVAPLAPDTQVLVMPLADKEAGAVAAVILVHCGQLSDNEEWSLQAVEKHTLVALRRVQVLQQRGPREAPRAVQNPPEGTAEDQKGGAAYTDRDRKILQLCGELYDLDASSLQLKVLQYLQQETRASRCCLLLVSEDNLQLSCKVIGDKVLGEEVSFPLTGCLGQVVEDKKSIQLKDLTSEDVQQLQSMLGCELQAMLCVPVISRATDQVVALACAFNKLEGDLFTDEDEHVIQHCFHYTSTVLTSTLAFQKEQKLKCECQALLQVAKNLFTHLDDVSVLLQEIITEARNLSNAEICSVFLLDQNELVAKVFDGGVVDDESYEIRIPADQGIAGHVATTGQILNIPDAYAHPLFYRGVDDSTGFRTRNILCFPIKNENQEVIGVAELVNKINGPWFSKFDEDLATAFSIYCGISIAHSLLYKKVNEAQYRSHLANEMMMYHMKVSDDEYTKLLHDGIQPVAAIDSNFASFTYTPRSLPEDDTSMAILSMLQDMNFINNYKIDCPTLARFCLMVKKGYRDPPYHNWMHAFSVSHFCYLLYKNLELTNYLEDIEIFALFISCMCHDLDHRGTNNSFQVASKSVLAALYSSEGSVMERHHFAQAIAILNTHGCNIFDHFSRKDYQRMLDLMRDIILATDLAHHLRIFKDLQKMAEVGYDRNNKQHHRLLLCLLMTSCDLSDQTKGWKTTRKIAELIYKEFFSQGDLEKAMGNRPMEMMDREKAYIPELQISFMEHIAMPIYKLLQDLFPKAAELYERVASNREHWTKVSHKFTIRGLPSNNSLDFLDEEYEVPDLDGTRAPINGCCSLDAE

In the case of `COCC(NC(=O)c1cc(=O)[nH]c2cccnc12)c1ccc(OC(F)(F)F)cc1` (centres unmarked) [Example 1, N-(2-methoxy-1-(4-(trifluoromethoxy)phenyl)ethyl)-2-oxo-1,2-dihydro-1,5-naphthyridine-4-carboxamide], the inhibition at 1 µM in assay [1] is 99%.
Same read-out and setting: as for `COC[C@@H](NC(=O)c1cnn2cc(C)cnc12)c1ccc(OC(F)(F)F)c(F)c1` [Example 12, N-((1S)-1-(3-fluoro-4-(trifluoromethoxy)phenyl)-2-methoxyethyl)-6-methylpyrazolo[1,5-a]pyrimidine-3-carboxamide], the figure is 99%; as for `CCN(C)c1ccn2ncc(C(=O)NC(c3ccc(OC(F)(F)F)c(F)c3)C(C)(C)O)c2n1` (centres unmarked) [Example 29, 5-(ethyl(methyl)amino)-N-(1-(3-fluoro-4-(trifluoromethoxy)phenyl)-2-hydroxy-2-methylpropyl)pyrazolo[1,5-a]pyrimidine-3-carboxamide], 100%.
For `COCC(NC(=O)c1cnn2ccc(N3CCOCC3)nc12)c1ccc(OC(F)(F)F)c(F)c1` (centres unmarked) [Example 38, N-(1-(3-fluoro-4-(trifluoromethoxy)phenyl)-2-methoxyethyl)-5-(morpholin-4-yl)pyrazolo[1,5-a]pyrimidine-3-carboxamide], the inhibition at 1 µM in assay [1] came to 98%.
Turning to `Cc1cn2ncc(C(=O)NC(c3ccc(OC(F)(F)F)c(F)c3)C(C)(C)O)c2nc1N1CCC1` (centres unmarked) [Example 59, 5-(azetidin-1-yl)-N-(1-(3-fluoro-4-(trifluoromethoxy)phenyl)-2-hydroxy-2-methylpropyl)-6-methylpyrazolo[1,5-a]pyrimidine-3-carboxamide], the inhibition at 1 µM in assay [1] is 101%.
The same measure, in the same setting: next, `Cn1cc(C(=O)N[C@@H](c2ccc(OC(F)(F)F)c(F)c2)C(C)(C)O)c2nc(C3CC3)cc(=O)n21` [Example 66, 5-cyclopropyl-N-((1S)-1-(3-fluoro-4-(trifluoromethoxy)phenyl)-2-hydroxy-2-methylpropyl)-1-methyl-7-oxo-1,7-dihydropyrazolo[1,5-a]pyrimidine-3-carboxamide]: 98%.
For `Cc1ccc(-c2ccn3ncc(C(=O)N[C@@H](c4ccc(OC(F)(F)F)cc4)C(C)(C)O)c3n2)cn1` [Example 69, N-((1S)-2-hydroxy-2-methyl-1-(4-(trifluoromethoxy)phenyl)propyl)-5-(6-methylpyridin-3-yl)pyrazolo[1,5-a]pyrimidine-3-carboxamide], the inhibition at 1 µM in assay [1] was determined as 100%. In assay [2], the “improvement effect on MK-801-induced deficits in contextual fear conditioning test (freezing)” value is “improvement effect on MK-801-induced deficits was shown”.
Turning to `CC(C)(O)[C@@H](NC(=O)c1cnn2ccc(-c3cnn(C(F)F)c3)nc12)c1ccc(OC(F)(F)F)cc1` [Example 70, 5-(1-(difluoromethyl)-1H-pyrazol-4-yl)-N-((1S)-2-hydroxy-2-methyl-1-(4-(trifluoromethoxy)phenyl)propyl)pyrazolo[1,5-a]pyrimidine-3-carboxamide], the inhibition at 1 µM in assay [1] came to 101%.
On to `CC(C)(O)[C@@H](NC(=O)c1cnn2ccc(-c3ccccn3)nc12)c1ccc(OC(F)(F)F)cc1` [Example 72, N-((1S)-2-hydroxy-2-methyl-1-(4-(trifluoromethoxy)phenyl)propyl)-5-(pyridin-2-yl)pyrazolo[1,5-a]pyrimidine-3-carboxamide], for which the inhibition at 1 µM in assay [1] stood at 100%.
Consider `Cn1cc(C(=O)N[C@@H](c2ccc(OC(F)(F)F)cc2)C(C)(C)O)c2nc(-c3ccccn3)cc(=O)n21` [Example 77, N-((1S)-2-hydroxy-2-methyl-1-(4-(trifluoromethoxy)phenyl)propyl)-1-methyl-7-oxo-5-(pyridin-2-yl)-1,7-dihydropyrazolo[1,5-a]pyrimidine-3-carboxamide], for which the inhibition at 1 µM in assay [1] is 100%.
On to `Cc1cn2ncc(C(=O)N[C@@H](c3ccc(OC(F)(F)F)cc3)C(C)(C)O)c2nc1-n1cnc(C(F)(F)F)c1` [Example 79, N-((1S)-2-hydroxy-2-methyl-1-(4-(trifluoromethoxy)phenyl)propyl)-6-methyl-5-(4-(trifluoromethyl)-1H-imidazol-1-yl)pyrazolo[1,5-a]pyrimidine-3-carboxamide], for which the inhibition at 1 µM in assay [1] amounted to 101%.
On to `Cc1cn2ncc(C(=O)N[C@@H](c3ccc(OC(F)(F)F)cc3)C(C)(C)O)c2nc1-c1cnn(C(F)F)c1` [Example 83, 5-(1-(difluoromethyl)-1H-pyrazol-4-yl)-N-((1S)-2-hydroxy-2-methyl-1-(4-(trifluoromethoxy)phenyl)propyl)-6-methylpyrazolo[1,5-a]pyrimidine-3-carboxamide], for which the inhibition at 1 µM in assay [1] is 100%.
In the case of `COC[C@@H](NC(=O)c1cc(=O)[nH]c2cc(C)cnc12)c1ccc(OC(F)(F)F)cc1` [Example 92, N-((1S)-2-methoxy-1-(4-(trifluoromethoxy)phenyl)ethyl)-7-methyl-2-oxo-1,2-dihydro-1,5-naphthyridine-4-carboxamide], in assay [1], the inhibition at 1 µM came out at 100%.
On the same count and under the same terms, next, `CC(C)(O)[C@@H](NC(=O)c1cnn2ccc(-c3ccccc3C#N)nc12)c1ccc(OC(F)(F)F)c(F)c1` [Example 101, 5-(2-cyanophenyl)-N-((1S)-1-(3-fluoro-4-(trifluoromethoxy)phenyl)-2-hydroxy-2-methylpropyl) pyrazolo[1,5-a]pyrimidine-3-carboxamide]: 100%; `Cc1cn(-c2ccn3ncc(C(=O)N[C@@H](c4ccc(OC(F)(F)F)cc4)C(C)(C)O)c3n2)cn1` [Example 115, N-((1S)-2-hydroxy-2-methyl-1-(4-(trifluoromethoxy)phenyl)propyl)-5-(4-methyl-1H-imidazol-1-yl)pyrazolo[1,5-a]pyrimidine-3-carboxamide]: 101%.
As to `CC1(C)CN(c2ccn3ncc(C(=O)N[C@@H](c4ccc(OC(F)(F)F)cc4)C(C)(C)O)c3n2)CCO1` [Example 124, 5-(2,2-dimethylmorpholin-4-yl)-N-((1S)-2-hydroxy-2-methyl-1-(4-(trifluoromethoxy)phenyl)propyl)pyrazolo[1,5-a]pyrimidine-3-carboxamide], the inhibition at 1 µM in assay [1] amounted to 99%.
The same measure, in the same setting: as for `CC1(C)CCN(c2ccn3ncc(C(=O)N[C@@H](c4ccc(OC(F)(F)F)cc4)C(C)(C)O)c3n2)C1=O` [Example 135, 5-(3,3-dimethyl-2-oxopyrrolidin-1-yl)-N-((1S)-2-hydroxy-2-methyl-1-(4-(trifluoromethoxy)phenyl)propyl)pyrazolo[1,5-a]pyrimidine-3-carboxamide], the figure is 100%; as for `COC[C@@H](NC(=O)c1cc(=O)[nH]c2cc(OC)cnc12)c1ccc(OC(F)(F)F)c(F)c1` [Example 152, N-((1S)-1-(3-fluoro-4-(trifluoromethoxy)phenyl)-2-methoxyethyl)-7-methoxy-2-oxo-1,2-dihydro-1,5-naphthyridine-4-carboxamide], 100%; as for `CC(C)(O)[C@@H](NC(=O)c1ccc2cncc(-c3ccccc3)c2n1)c1ccc(OC(F)(F)F)cc1` [Example 164, N-((1S)-2-hydroxy-2-methyl-1-(4-(trifluoromethoxy)phenyl)propyl)-8-phenyl-1,6-naphthyridine-2-carboxamide], 97%.
